Values of other authors, collected in publication PMC3974845 (International journal of peptide research and therapeutics, 2013).
Read-outs that look alike come from different tables or passages of the source. [ ]: non-standard residue; d: D form. pY = N[C@@H](Cc1ccc(OP(=O)(O)O)cc1)C(=O)O

Target: full length Stat3 (SH2 domain) (Homo sapiens, UniProt P40763)
[1] = affinity for Stat3, Table 1, ref Coleman et al. 2005
[2] = affinity for Stat3, Table 1, ref Mandal et al. 2009b
[3] = affinity for Stat3, Table 1, ref Mandal et al. 2011

full length Stat3 (SH2 domain), sequence (P40763 whole entry, species assumed, the tested form may be a part): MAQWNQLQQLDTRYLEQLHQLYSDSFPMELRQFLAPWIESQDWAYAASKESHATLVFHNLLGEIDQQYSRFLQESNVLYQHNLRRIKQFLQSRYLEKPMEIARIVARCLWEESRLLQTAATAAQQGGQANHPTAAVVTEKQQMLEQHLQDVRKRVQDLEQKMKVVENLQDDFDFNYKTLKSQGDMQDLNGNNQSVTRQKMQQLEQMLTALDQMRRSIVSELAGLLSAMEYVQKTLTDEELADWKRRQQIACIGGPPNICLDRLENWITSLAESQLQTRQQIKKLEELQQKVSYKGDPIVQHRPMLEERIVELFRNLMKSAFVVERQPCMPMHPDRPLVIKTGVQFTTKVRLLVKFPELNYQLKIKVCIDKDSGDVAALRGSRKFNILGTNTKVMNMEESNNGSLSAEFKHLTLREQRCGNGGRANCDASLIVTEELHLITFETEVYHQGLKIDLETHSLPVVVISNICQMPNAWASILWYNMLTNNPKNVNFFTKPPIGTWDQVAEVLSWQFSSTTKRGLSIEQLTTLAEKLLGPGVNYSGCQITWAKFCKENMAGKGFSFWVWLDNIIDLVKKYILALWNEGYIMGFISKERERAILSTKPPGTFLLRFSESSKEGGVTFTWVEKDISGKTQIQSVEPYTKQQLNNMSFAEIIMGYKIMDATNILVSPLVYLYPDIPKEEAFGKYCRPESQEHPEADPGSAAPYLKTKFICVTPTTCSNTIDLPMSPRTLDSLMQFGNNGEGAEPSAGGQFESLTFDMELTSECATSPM

With “Ac-pTyr-Leu-Pro-Gln-Val- NH2 (Ac-[pY]LPQV-NH2; SMILES CC(=O)N[C@@H](Cc1ccc(OP(=O)(O)O)cc1)C(=O)N[C@@H](CC(C)C)C(=O)N1CCC[C@H]1C(=O)N[C@@H](CCC(N)=O)C(=O)N[C@H](C(N)=O)C(C)C) [Compound 11]” as the substance, how does the IC50 [1] read?
Its IC50 is 739 ± 31 nM.

With “Ac-pTyr-Leu-mPro-Gln-Val- NH2 [Compound 12]” as the substance, how does the IC50 [1] read?
Its IC50 is 265 ± 14 nM.

Which IC50 [2] does the source give for pCinn-Leu-Pro-Gln-NHBn [Compound 13] here?
Its IC50 is 138 ± 8 nM.

Which IC50 [2] does the source give for pCinn-Leu-mPro-Gln-NHBn [Compound 14] here?
The IC50 was 68 ± 8 nM.

With βMpCinn-Leu-Pro-Gln- NHBn [Compound 15] as the substance, how does the IC50 [3] read?
Its IC50 is 70 ± 15 nM.

With βMpCinn-Leu-mPro-Apa [Compound 18] as the substance, how does the IC50 [3] read?
The IC50 was 88 ± 11 nM.

What about the IC50 (βMpCinn-Leu-Xaa-Apa series, fluorescence polarization, ref Mandal et al. 2011) of the same substance?
Its IC50 is 88 ± 11 nM.

Which IC50 [3] does the source give for “βMpCinn-Leu-mPro-Gln- NHBn [Compound 16]” here?
Its IC50 is 46 ± 5 nM.
